Laboratory results as given in patent publication US20250296953A1, “3,4-THIAZOLO-STEROIDS AND METHODS OF MAKING AND USING THE SAME” (Arkansas State University - Jonesboro, priority 2018, published 2025).
Like-named read-outs stand apart in the source and are kept apart here.

Tests used:
SK-MEL-5 = assay: Melanoma cytotoxicity assay (resazurin); format: cell-based; settings: SK-MEL-5 melanoma cells, 24 hours with compound, resazurin; concentration not given
Outline: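 Viability read by resazurin fluorescence (ex 544, em 590 nm) after 6 h, following 24 h compound exposure of cells plated 24 h earlier (~4000/well). Triplicate means, minus medium blank, divided by DMSO control; IC50 derived from sigmoidal dose-response curves.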

[1] = tested on: 60 different human tumor cell lines; assay: cells

SMILES: C[C@]12CCc3sc(Nc4ccc(F)cc4F)nc3C1=CC[C@@H]1[C@@H]2CC[C@]2(C)C(=O)CC[C@@H]12 [IIa.10, (1S,2R,13R,14S,18S)-7-(2,4-difluoroanilino)-2,18-dimethyl-6-thia-8-azapentacyclo[11.7.0.02,10.05,9.014,18]icosa-5(9),7,10-trien-17-one]
- SK-MEL-5 (% inhibition) (SK-MEL-5): 48%
- CC50 ([1]; 60 cell, read-out: LC50): > 100 µM
- CC50 ([1]; A498, read-out: LC50): > 100 µM
- CC50 ([1]; A549, read-out: LC50): > 100 µM
- GI50 ([1]; ACHN): 1.81 µM
- CC50 ([1]; BT-549, read-out: LC50): > 100 µM
- CC50 ([1]; CAKI-1, read-out: LC50): > 100 µM
- GI50 ([1]; CCRF-CEM): 2.64 µM
- CC50 ([1]; CCRF-CEM, read-out: LC50): > 100 µM
- GI50 ([1]; DU-145): 1.98 µM
- CC50 ([1]; EKVX, read-out: LC50): > 100 µM
- GI50 ([1]; HCT-15): 1.7 µM
- CC50 ([1]; HCT-15, read-out: LC50): > 100 µM
- GI50 ([1]; HCT-116): 1.67 µM
- CC50 ([1]; HL-60, read-out: LC50): > 100 µM
- CC50 ([1]; HOP-62, read-out: LC50): > 100 µM
- CC50 ([1]; HOP-92, read-out: LC50): > 100 µM
- GI50 ([1]; HT-29): 2.24 µM
- CC50 ([1]; HT-29, read-out: LC50): > 100 µM
- CC50 ([1]; Hs-578T, read-out: LC50): > 100 µM
- CC50 ([1]; IGROV-1, read-out: LC50): > 100 µM
- GI50 ([1]; K562): 2.43 µM
- CC50 ([1]; K562, read-out: LC50): > 100 µM
- GI50 ([1]; LOX IMVI): 1.71 µM
- CC50 ([1]; M14, read-out: LC50): > 100 µM
- CC50 ([1]; MCF7, read-out: LC50): > 100 µM
- CC50 ([1]; MDA-MB-231, read-out: LC50): > 100 µM
- CC50 ([1]; MDA-MB-435, read-out: LC50): > 100 µM
- GI50 ([1]; MDA-MB-468): 1.75 µM
- GI50 ([1]; MOLT-4): 2.44 µM
- CC50 ([1]; MOLT-4, read-out: LC50): > 100 µM
- CC50 ([1]; Malme-3M, read-out: LC50): > 100 µM
- CC50 ([1]; NCI-H23, read-out: LC50): > 100 µM
- GI50 ([1]; NCI-H226): 1.83 µM
- CC50 ([1]; NCI-H322M, read-out: LC50): > 100 µM
- CC50 ([1]; NCI-H460, read-out: LC50): > 100 µM
- GI50 ([1]; NCI-H522): 1.84 µM
- CC50 ([1]; NCI/ADR-RES, read-out: LC50): > 100 µM
- GI50 ([1]; OVCAR-3): 1.9 µM
- CC50 ([1]; OVCAR-4, read-out: LC50): > 100 µM
- CC50 ([1]; OVCAR-5, read-out: LC50): > 100 µM
- GI50 ([1]; OVCAR-8): 2.96 µM
- CC50 ([1]; OVCAR-8, read-out: LC50): > 100 µM
- GI50 ([1]; RXF 393): 1.57 µM
- CC50 ([1]; SF-268, read-out: LC50): > 100 µM
- CC50 ([1]; SK-MEL-2, read-out: LC50): > 100 µM
- GI50 ([1]; SK-MEL-5): 1.88 µM
- CC50 ([1]; SK-OV-3, read-out: LC50): > 100 µM
- CC50 ([1]; SN12C, read-out: LC50): > 100 µM
- CC50 ([1]; SNB-19, read-out: LC50): > 100 µM
- CC50 ([1]; SNB-75, read-out: LC50): > 100 µM
- GI50 ([1]; SW-620): 2.4 µM
- CC50 ([1]; SW-620, read-out: LC50): > 100 µM
- GI50 ([1]; T47D): 2.25 µM
- CC50 ([1]; T47D, read-out: LC50): > 100 µM
- GI50 ([1]; TK-10): 2.8 µM
- CC50 ([1]; TK-10, read-out: LC50): > 100 µM
- CC50 ([1]; U-251, read-out: LC50): > 100 µM
- CC50 ([1]; UACC-62, read-out: LC50): > 100 µM
- CC50 ([1]; UACC-257, read-out: LC50): > 100 µM

SMILES: C[C@]12CC[C@H]3[C@@H](CC=C4c5sc(-c6ccc(O)cc6)nc5CC[C@@]43C)[C@@H]1CC[C@@H]2O [III.5, (1S,2R,13R,14S,17S,18S)-7-(4-hydroxyphenyl)-2,18-dimethyl-8-thia-6-azapentacyclo[11.7.0.02,10.05,9.014,18]icosa-5(9),6,10-trien-17-ol]
- GI50 ([1]; 786-0): 0.423 µM
- CC50 ([1]; 786-0, read-out: LC50): 21.2 µM
- GI50 ([1]; A498): 3.51 µM
- CC50 ([1]; A498, read-out: LC50): > 100 µM
- GI50 ([1]; A549): 5.95 µM
- CC50 ([1]; A549, read-out: LC50): > 100 µM
- GI50 ([1]; ACHN): 7.55 µM
- CC50 ([1]; ACHN, read-out: LC50): > 100 µM
- GI50 ([1]; BT-549): 1.14 µM
- CC50 ([1]; BT-549, read-out: LC50): > 100 µM
- GI50 ([1]; CAKI-1): 4.12 µM
- CC50 ([1]; CAKI-1, read-out: LC50): > 100 µM
- GI50 ([1]; CCRF-CEM): 2.05 µM
- CC50 ([1]; CCRF-CEM, read-out: LC50): > 100 µM
- GI50 ([1]; COLO 205): 9.14 µM
- CC50 ([1]; COLO 205, read-out: LC50): > 100 µM
- GI50 ([1]; DU-145): 9.54 µM
- CC50 ([1]; DU-145, read-out: LC50): > 100 µM
- GI50 ([1]; EKVX): 7.29 µM
- CC50 ([1]; EKVX, read-out: LC50): > 100 µM
- GI50 ([1]; HCC 2998): 31.9 µM
- CC50 ([1]; HCC 2998, read-out: LC50): > 100 µM
- GI50 ([1]; HCT-15): 2.43 µM
- CC50 ([1]; HCT-15, read-out: LC50): > 100 µM
- GI50 ([1]; HCT-116): 2.37 µM
- CC50 ([1]; HCT-116, read-out: LC50): > 100 µM
- GI50 ([1]; HL-60): 4.08 µM
- CC50 ([1]; HL-60, read-out: LC50): > 100 µM
- GI50 ([1]; HOP-62): 5.25 µM
- CC50 ([1]; HOP-62, read-out: LC50): > 100 µM
- GI50 ([1]; HT-29): 3.13 µM
- CC50 ([1]; HT-29, read-out: LC50): > 100 µM
- GI50 ([1]; Hs-578T): 1.59 µM
- CC50 ([1]; Hs-578T, read-out: LC50): > 100 µM
- GI50 ([1]; IGROV-1): 11.1 µM
- CC50 ([1]; IGROV-1, read-out: LC50): > 100 µM
- GI50 ([1]; K562): 3.48 µM
- CC50 ([1]; K562, read-out: LC50): > 100 µM
- GI50 ([1]; KM12): 7.24 µM
- CC50 ([1]; KM12, read-out: LC50): > 100 µM
- GI50 ([1]; LOX IMVI): 2.67 µM
- CC50 ([1]; LOX IMVI, read-out: LC50): > 100 µM
- GI50 ([1]; M14): 2.86 µM
- CC50 ([1]; M14, read-out: LC50): > 100 µM
- GI50 ([1]; MCF7): 3.34 µM
- CC50 ([1]; MCF7, read-out: LC50): > 100 µM
- GI50 ([1]; MDA-MB-231): 6.98 µM
- CC50 ([1]; MDA-MB-231, read-out: LC50): > 100 µM
- GI50 ([1]; MDA-MB-435): 16.4 µM
- CC50 ([1]; MDA-MB-435, read-out: LC50): > 100 µM
- GI50 ([1]; MDA-MB-468): 5.13 µM
- CC50 ([1]; MDA-MB-468, read-out: LC50): > 100 µM
- GI50 ([1]; MOLT-4): 1.93 µM
- CC50 ([1]; MOLT-4, read-out: LC50): > 100 µM
- GI50 ([1]; Malme-3M): 3.76 µM
- CC50 ([1]; Malme-3M, read-out: LC50): > 100 µM
- GI50 ([1]; NCI-H23): 14 µM
- CC50 ([1]; NCI-H23, read-out: LC50): > 100 µM
- GI50 ([1]; NCI-H226): 27.4 µM
- CC50 ([1]; NCI-H226, read-out: LC50): > 100 µM
- GI50 ([1]; NCI-H322M): 31.1 µM
- CC50 ([1]; NCI-H322M, read-out: LC50): > 100 µM
- GI50 ([1]; NCI-H460): 4.94 µM
- CC50 ([1]; NCI-H460, read-out: LC50): > 100 µM
- GI50 ([1]; NCI-H522): 22.6 µM
- CC50 ([1]; NCI-H522, read-out: LC50): > 100 µM
- GI50 ([1]; NCI/ADR-RES): 6.77 µM
- CC50 ([1]; NCI/ADR-RES, read-out: LC50): > 100 µM
- GI50 ([1]; OVCAR-3): 8.67 µM
- CC50 ([1]; OVCAR-3, read-out: LC50): > 100 µM
- GI50 ([1]; OVCAR-4): 7.24 µM
- CC50 ([1]; OVCAR-4, read-out: LC50): > 100 µM
- GI50 ([1]; OVCAR-5): 13.3 µM
- CC50 ([1]; OVCAR-5, read-out: LC50): > 100 µM
- GI50 ([1]; OVCAR-8): 40.9 µM
- CC50 ([1]; OVCAR-8, read-out: LC50): > 100 µM
- GI50 ([1]; RXF 393): 0.377 µM
- CC50 ([1]; RXF 393, read-out: LC50): 8.58 µM
- GI50 ([1]; SF-268): 5.32 µM
- CC50 ([1]; SF-268, read-out: LC50): > 100 µM
- GI50 ([1]; SK-MEL-2): 4.42 µM
- CC50 ([1]; SK-MEL-2, read-out: LC50): > 100 µM
- GI50 ([1]; SK-MEL-5): 3.15 µM
- CC50 ([1]; SK-MEL-5, read-out: LC50): 48.5 µM
- GI50 ([1]; SK-MEL-28): 3.05 µM
- CC50 ([1]; SK-MEL-28, read-out: LC50): > 100 µM
- GI50 ([1]; SK-OV-3): 19 µM
- CC50 ([1]; SK-OV-3, read-out: LC50): > 100 µM
- CC50 ([1]; SN12C, read-out: LC50): > 100 µM
- GI50 ([1]; SNB-19): 7.95 µM
- CC50 ([1]; SNB-19, read-out: LC50): > 100 µM
- GI50 ([1]; SNB-75): 1.84 µM
- CC50 ([1]; SNB-75, read-out: LC50): > 100 µM
- GI50 ([1]; SW-620): 8.4 µM
- CC50 ([1]; SW-620, read-out: LC50): > 100 µM
- GI50 ([1]; T47D): 10.3 µM
- CC50 ([1]; T47D, read-out: LC50): > 100 µM
- GI50 ([1]; TK-10): > 100 µM
- CC50 ([1]; TK-10, read-out: LC50): > 100 µM
- GI50 ([1]; U-251): 2.23 µM
- CC50 ([1]; U-251, read-out: LC50): > 100 µM
- GI50 ([1]; UACC-62): 2.43 µM
- CC50 ([1]; UACC-62, read-out: LC50): > 100 µM
- GI50 ([1]; UACC-257): 11.9 µM
- CC50 ([1]; UACC-257, read-out: LC50): > 100 µM
- GI50 ([1]; UO-31): 2.48 µM
- CC50 ([1]; UO-31, read-out: LC50): > 100 µM
